Measurements: the RepoRT retention time repository (doi:10.1021/acs.analchem.1c00972)

How the values were obtained:
[1] = RP, Waters ACQUITY UPLC BEH C18, 100 × 1 mm, 1.7 µm, 50 °C, 0.3 mL/min, estimated dead time 0.17 min; A: water + 10 mM ammonium bicarbonate; B: 10% water + 90% methanol + 10 mM ammonium bicarbonate; gradient (min/%B) 0/0 15/100 21/100 22/0 30/0; settings: stereoisomer not certain
[2] = RP, Waters ACQUITY UPLC BEH C18, 100 × 1 mm, 1.7 µm, 50 °C, 0.3 mL/min, estimated dead time 0.17 min; A: water + 0.1% formic acid + 20 mM ammonium formate; B: methanol + 0.1% formic acid + 20 mM ammonium formate; gradient (min/%B) 0/0 15/100 21/100 22/0 30/0; settings: stereoisomer not certain

| SMILES | LC retention time [1] [min] | LC retention time [2] [min] |
| --- | --- | --- |
| CC12CCC(=O)C=C1CCC1C2CCC2(C)C1CCC2(C)O (stereo not drawn) [17alpha-Methyltestosterone] | 15 | 14.7 |
| C#CC1(O)C=CC2C3CCC4=CC(=O)CCC4C3CCC21CC (configuration not stated) [Gestoden] | 14.3 | 14 |
| CNC(=O)Oc1cc(C)c(S(C)(=O)=O)c(C)c1 [Methiocarb sulfone] | 9.75 | 9.58 |
| CCCCCCCOC(=O)c1ccccc1C(=O)OCCCCCCC [Di-n-heptylphthalate] | 19.4 | 18.9 |
| CCCCC(CC)COC(=O)CC(C(=O)OCC(CC)CCCC)S(=O)(=O)O (configuration not stated) [Dioctylsulfosuccinate] | 17.3 | 17 |
| CCOP(=S)(OCC)Oc1cc(C)nc(C(C)C)n1 [Diazinon] | 16 | 15.7 |
| OCCN1CCN(CCC=C2c3ccccc3Sc3ccc(C(F)(F)F)cc32)CC1 [Flupentixol] | 17.3 | 14.7 |
| CC=C(C)C(=O)OC1CCN2CC=C(COC(=O)C(O)(C(C)OC)C(C)(C)O)C12 (configuration not stated) [Lasiocarpine] | 13.9 | 10.4 |
| CC12C=CC3=C4CCC(=O)C=C4CCC3C1CCC2O (configuration not stated) [Trenbolone] | 13.6 | 13.4 |
| CCC1OC(=O)C(C)C(OC2CC(C)(OC)C(O)C(C)O2)C(C)C(OC2OC(C)CC(N(C)C)C2O)C(C)(O)CC(C)C(=O)C(C)C(O)C1(C)O (configuration not stated) [Erythromycin] | 15.9 | 13.2 |
| COP(=S)(OC)SCn1nnc2ccccc2c1=O [Azinphos methyl] | 13.6 | 13.4 |
| CC1CCC2(NC1)OC1CC3C4CC=C5CC(O)CCC5(C)C4CCC3(C)C1C2C (configuration not stated) [Solasodin] | 18 | 14.3 |
| CCC(=NOCC=CCl)C1=C(O)CC(C2CCOCC2)CC1=O (single isomer, unassigned; peak1) [Tepraloxydim Peak1] | 9.25 | 14.7 |
| O=C(Cc1ccccc1)NC(=NOCC1CC1)c1c(C(F)(F)F)ccc(F)c1F [Cyflufenamid] | 16.3 | 16 |
| CCOC(=O)CCN(Cc1ccccc1)SN(C)C(=O)ON=C(C)SC [Alanycarb] | 15.8 | 15.5 |
| CCC1OC(=O)CC(O)C(C)C(OC2OC(C)C(OC3CC(C)(O)C(O)C(C)O3)C(N(C)C)C2O)C(CC=O)CC(C)C(=O)C=CC(C)=CC1COC1OC(C)C(O)C(OC)C1OC (configuration not stated) [Tylosin] | 15.5 | 13.1 |

Results, then the compound that gave them:

| LC retention time [1] [min] | LC retention time [2] [min] | SMILES |
| --- | --- | --- |
| 17.8 | 12.9 | CC(CN(C)C)CN1c2ccccc2CCc2ccccc21 (configuration not stated) [Trimipramine] |
| 2.61 | 6 | Nc1ccc(S(=O)(=O)Nc2ncccn2)cc1 [Sulfadiazin] |
| 14.6 | 9.9 | Cc1cccc2n[nH]nc12 [Tolyltriazole] |
| 13.2 | 9.08 | CC(C)(C)NCC(O)COc1nsnc1N1CCOCC1 (configuration not stated) [Timolol] |
| 16.6 | 16.2 | CC(C)(C)c1cccc(C(C)(C)C)c1O [2,6-di-tert-Butylphenol] |
| 14.7 | 10.5 | Cc1nc2n(c(=O)c1CCN1CCC(c3noc4cc(F)ccc34)CC1)CCCC2 [Risperidone] |
| 14.4 | 16.7 | Cc1c(Cl)cccc1Nc1ccccc1C(=O)O [Tolfenamics<e4>ure] |
| 14.1 | 9.26 | COC(=O)C1C(O)CCC2CN3CCc4c([nH]c5ccccc45)C3CC21 (configuration not stated) [Yohimbine] |
| 13.1 | 8.36 | Cc1cccc(C)c1NC(=O)C1CCCCN1C (configuration not stated) [Mepivacaine] |
| 16 | 15.7 | O=Cc1ccccc1Nc1ccccc1Cl [2-(2-(Chlorophenyl)amino)benzaldehyde] |
